Results reported in US6737383B1, “Herbicidal oxadiazolidines” (priority 1999, dated 2004).

Key:
bedstraw = assay: Test B pre/postemergence bedstraw; type: in vivo, Galium aparine
Summary of the method: (§1)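 Test chemicals in a non-phytotoxic solvent mixture with surfactant were sprayed preemergence onto planted seeds and postemergence onto plants 2 to 18 cm tall (1- to 4-leaf stage). After twelve to sixteen days in a greenhouse, injury was visually rated against untreated controls from 0 (no effect) to 10 (complete control).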

blackgrass = assay: Test B pre/postemergence blackgrass; type: in vivo, Alopecurus myosuroides
Summary of the method: as §1

surinam grass = assay: Test B pre/postemergence surinam grass; type: in vivo, Brachiaria decumbens
Summary of the method: as §1

cocklebur = assay: Test B pre/postemergence cocklebur; type: in vivo, Xanthium strumarium
Summary of the method: as §1

corn = assay: Test B pre/postemergence corn; type: in vivo, Zea mays
Summary of the method: as §1

morningglory = assay: Test B pre/postemergence morningglory; type: in vivo, Ipomoea hederacea
Summary of the method: as §1

pigweed = assay: Test B pre/postemergence pigweed; type: in vivo, Amaranthus retroflexus
Summary of the method: as §1

rape = assay: Test B pre/postemergence rape; type: in vivo, Brassica napus
Summary of the method: as §1

soybean = assay: Test B pre/postemergence soybean; type: in vivo, Glycine max
Summary of the method: as §1

sugar beet = assay: Test B pre/postemergence sugar beet; type: in vivo, Beta vulgaris; conditions: for Plant response rating, Sugarbeets: Rate 250 g/ha
Summary of the method: as §1

velvetleaf = assay: Test B pre/postemergence velvetleaf; type: in vivo, Abutilon theophrasti; conditions: for Plant response rating, Velvetleaf: Rate 250 g/ha
Summary of the method: as §1

wild oat = assay: Test B pre/postemergence wild oat; type: in vivo, Avena fatua; conditions: for Plant response rating, Wild oats: Rate 250 g/ha
Summary of the method: as §1

purple nutsedge = assay: Test B pre/postemergence purple nutsedge; type: in vivo, Cyperus rotundus
Summary of the method: as §1

rice = assay: Test B flood test rice; type: in vivo, Oryza sativa
Summary of the method: (§2)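 Each value is a visual injury score relative to controls, with 10 meaning complete control and 0 no effect. Evaluation took place twelve to sixteen days after the 2-leaf-stage plants were treated and kept in the greenhouse.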

smallflower flatsedge = assay: Test B flood test smallflower flatsedge; type: in vivo, Cyperus difformis
Summary of the method: as §2

bamyardgrass = assay: Test B flood test barnyardgrass; type: in vivo, Echinochloa crus-galli
Summary of the method: as §2

[1] = Postemergence, Rate 62 g/ha, scale 0 to 10, 0 is no effect, 10 is complete control
[2] = Preemergence, Rate 31 g/ha, visual rating, scale 0 to 10 (0 no effect, 10 complete control)
[3] = Preemergence, Rate 62 g/ha, scale 0 to 10 (0 no effect, 10 complete control)
[4] = Preemergence, Rate 125 g/ha, scale 0 to 10 (0 no effect, 10 complete control)
[5] = Preemergence, Rate 250 g/ha, scale of 0 to 10 where 0 is no effect and 10 is complete control
[6] = Rate 31 g/ha, Postemergence, scale 0 to 10
[7] = Postemergence, Rate 125 g/ha, scale of 0 to 10 where 0 is no effect and 10 is complete control
[8] = Postemergence, Rate 250 g/ha, scale 0 to 10, 0 no effect, 10 complete control
[9] = Rate 250 g/ha, Postemergence, scale 0 to 10, 0 is no effect, 10 is complete control
[10] = Preemergence, Rate 125 g/ha, 0 is no effect, 10 is complete control
[11] = Preemergence, scale of 0 to 10 where 0 is no effect and 10 is complete control
[12] = Postemergence, scale 0 to 10, 0 is no effect, 10 is complete control
[13] = Postemergence (flood test species), Rate 125 g/ha, scale of 0 to 10 where 0 is no effect and 10 is complete control
[14] = Rate 31 g/ha, Postemergence section (flood test species), scale 0 to 10
[15] = Rate 250 g/ha, Postemergence (flood test), scale 0 to 10, 0 is no effect, 10 is complete control

## CC(C)N(C(=O)n1oc(=O)n(-c2cnn(C)c2)c1=O)c1ccc(F)cc1 [Compound 98]
bedstraw; [1]
  Bedstraw plant response rating: 0
bedstraw; [2]
  Bedstraw plant response rating: 0
bedstraw; [3]
  Bedstraw plant response rating: 0
bedstraw; [4]
  Plant response rating, Bedstraw: 0
bedstraw; [5]
  Plant response rating, Bedstraw: 0
bedstraw; [6]
  Bedstraw plant response rating: 0
blackgrass; [1]
  Blackgrass plant response rating: 0
blackgrass; [7]
  Blackgrass plant response rating: 0
blackgrass; [8]
  Blackgrass plant response rating: 0
blackgrass; [2]
  Blackgrass plant response rating: 0
blackgrass; [3]
  Blackgrass plant response rating: 2
blackgrass; [4]
  Plant response rating, Blackgrass: 6
blackgrass; [5]
  Plant response rating, Blackgrass: 8
blackgrass; [6]
  Blackgrass plant response rating: 0
Surinam grass; [1]
  B. signalgrass plant response rating: 0
Surinam grass; [8]
  B. signalgrass plant response rating: 0
Surinam grass; [2]
  B. signalgrass plant response rating: 0
Surinam grass; [3]
  B. signalgrass plant response rating: 0
Surinam grass; [4]
  Plant response rating, B. signalgrass: 0
Surinam grass; [5]
  Plant response rating, B. signalgrass: 0
Surinam grass; [6]
  B. signalgrass plant response rating: 0
Surinam grass; Rate 125 g/ha, Postemergence, scale 0 to 10, 0 no effect, 10 complete control
  B. signalgrass plant response rating: 0
cocklebur; [1]
  Cocklebur plant response rating: 0
cocklebur; [7]
  Cocklebur plant response rating: 0
cocklebur; [8]
  Cocklebur plant response rating: 0
cocklebur; [2]
  Cocklebur plant response rating: 0
cocklebur; [3]
  Cocklebur plant response rating: 0
cocklebur; [4]
  Plant response rating, Cocklebur: 0
cocklebur; [5]
  Plant response rating, Cocklebur: 0
cocklebur; [6]
  Cocklebur plant response rating: 0
corn; [1]
  Corn plant response rating: 0
corn; [7]
  Corn plant response rating: 0
corn; [8]
  Corn plant response rating: 0
corn; [2]
  Corn plant response rating: 0
corn; [3]
  Corn plant response rating: 0
corn; [4]
  Plant response rating, Corn: 0
corn; [5]
  Plant response rating, Corn: 0
corn; [6]
  Corn plant response rating: 0
morningglory; [1]
  Morningglory plant response rating: 0
morningglory; [7]
  Morningglory plant response rating: 0
morningglory; [8]
  Morningglory plant response rating: 2
morningglory; [2]
  Morningglory plant response rating: 0
morningglory; [3]
  Morningglory plant response rating: 0
morningglory; [4]
  Plant response rating, Morningglory: 0
morningglory; [5]
  Plant response rating, Morningglory: 0
morningglory; [6]
  Morningglory plant response rating: 0
pigweed; [1]
  Redroot pigweed plant response rating: 0
pigweed; [7]
  Redroot pigweed plant response rating: 0
pigweed; [2]
  Redroot pigweed plant response rating: 0
pigweed; [3]
  Redroot pigweed plant response rating: 4
pigweed; [4]
  Plant response rating, Redroot pigweed: 4
pigweed; [5]
  Plant response rating, Redroot pigweed: 5
pigweed; [6]
  Redroot pigweed plant response rating: 0
pigweed; [9]
  Plant response rating, Redroot pigweed: 0
rape; [1]
  Rape plant response rating: 0
rape; [7]
  Rape plant response rating: 0
rape; [8]
  Rape plant response rating: 0
rape; [2]
  Rape plant response rating: 0
rape; [3]
  Rape plant response rating: 0
rape; [4]
  Plant response rating, Rape: 0
rape; [5]
  Plant response rating, Rape: 0
rape; [6]
  Rape plant response rating: 0
soybean; [1]
  Soybean plant response rating: 1
soybean; [7]
  Soybean plant response rating: 1
soybean; [2]
  Soybean plant response rating: 0
soybean; [3]
  Soybean plant response rating: 0
soybean; [4]
  Plant response rating, Soybean: 0
soybean; [5]
  Plant response rating, Soybean: 0
soybean; [9]
  Plant response rating, Soybean: 1
Sugar beet; [1]
  Sugarbeets plant response rating: 0
Sugar beet; [7]
  Sugarbeets plant response rating: 0
Sugar beet; [2]
  Sugarbeets plant response rating: 0
Sugar beet; [3]
  Sugarbeets plant response rating: 0
Sugar beet; [10]
  Sugarbeets plant response rating (0 to 10 scale): 0
Sugar beet; [11]
  Plant response rating, Sugarbeets: 3
Sugar beet; [12]
  Plant response rating, Sugarbeets: 0
velvetleaf; [1]
  Velvetleaf plant response rating: 0
velvetleaf; [7]
  Velvetleaf plant response rating: 0
velvetleaf; [2]
  Velvetleaf plant response rating: 0
velvetleaf; [3]
  Velvetleaf plant response rating: 0
velvetleaf; [10]
  Velvetleaf plant response rating (0 to 10 scale): 0
velvetleaf; [11]
  Plant response rating, Velvetleaf: 2
velvetleaf; [12]
  Plant response rating, Velvetleaf: 0
Wild oat; [1]
  Wild oats plant response rating: 0
Wild oat; [7]
  Wild oats plant response rating: 0
Wild oat; [2]
  Wild oats plant response rating: 0
Wild oat; [3]
  Wild oats plant response rating: 0
Wild oat; [10]
  Wild oats plant response rating (0 to 10 scale): 0
Wild oat; [11]
  Plant response rating, Wild oats: 2
Wild oat; [12]
  Plant response rating, Wild oats: 0
Purple nutsedge; [1]
  Nutsedge plant response rating: 0
Purple nutsedge; [7]
  Nutsedge plant response rating: 0
Purple nutsedge; [8]
  Nutsedge plant response rating: 0
Purple nutsedge; [2]
  Nutsedge plant response rating: 0
Purple nutsedge; [3]
  Nutsedge plant response rating: 0
Purple nutsedge; [4]
  Plant response rating, Nutsedge: 0
Purple nutsedge; [5]
  Plant response rating, Nutsedge: 0
Purple nutsedge; [6]
  Nutsedge plant response rating: 0
rice; [13]
  Rice plant response rating: 4
rice; [1]
  Rice plant response rating: 0
rice; [14]
  Rice plant response rating: 0
rice; [15]
  Plant response rating, Rice: 6
Smallflower flatsedge; [13]
  S. Flatsedge plant response rating: 8
Smallflower flatsedge; [1]
  S. Flatsedge plant response rating: 0
Smallflower flatsedge; [15]
  Plant response rating, S. Flatsedge: 8
bamyardgrass; [1]
  Barnyardgrass plant response rating: 5
bamyardgrass; [14]
  Barnyardgrass plant response rating: 3
bamyardgrass; Rate 125 g/ha, Postemergence section (flood test species), scale 0 to 10, 0 no effect, 10 complete control
  Barnyardgrass plant response rating: 9
bamyardgrass; flood test, listed under Postemergence, Rate 250 g/ha, scale 0 to 10, 0 no effect, 10 complete control
  Barnyardgrass plant response rating: 9
